This note sets out measurements from ChEMBL document CHEMBL1201862, “PubChem BioAssay data set” (2004).

The target in test [1] is Glyceraldehyde-3-phosphate dehydrogenase (Homo sapiens, UniProt P04406).
Test [2] has as its target T1, Alkaline phosphatase, tissue-nonspecific isozyme (Homo sapiens, UniProt P05186).
T1 sequence (P05186 whole entry): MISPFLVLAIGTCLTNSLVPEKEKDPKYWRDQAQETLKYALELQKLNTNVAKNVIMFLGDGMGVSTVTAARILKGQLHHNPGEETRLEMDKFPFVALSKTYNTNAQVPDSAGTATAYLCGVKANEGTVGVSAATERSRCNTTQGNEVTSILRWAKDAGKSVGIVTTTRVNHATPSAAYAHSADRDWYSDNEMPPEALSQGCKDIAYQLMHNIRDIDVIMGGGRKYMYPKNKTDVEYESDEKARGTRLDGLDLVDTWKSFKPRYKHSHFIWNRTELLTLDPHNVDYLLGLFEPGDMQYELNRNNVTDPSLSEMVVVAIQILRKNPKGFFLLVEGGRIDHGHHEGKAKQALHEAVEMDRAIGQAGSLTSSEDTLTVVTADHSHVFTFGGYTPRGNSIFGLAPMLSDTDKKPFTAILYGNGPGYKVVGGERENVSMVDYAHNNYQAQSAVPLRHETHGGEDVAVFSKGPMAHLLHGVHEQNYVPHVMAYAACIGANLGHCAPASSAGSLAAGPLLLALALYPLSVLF
Briefly: potency against alkaline phosphatase TNAP – biochemical, luminescent, dose response, SAR follow-up (AID 1056).

A further test addresses Ion channel NompC (Danio rerio, UniProt Q7T1G6). Description: Dose response cell-based high-throughput screening assay for agonists of the transient receptor potential channel N1 (TRPN1). [Related pubchem assays (depositor defined):AID1424, AID1448]. It counts as functional.
The target in another test is T2, Mucolipin-3 (Homo sapiens, UniProt Q8TDD5).
T2 sequence (Q8TDD5 whole entry): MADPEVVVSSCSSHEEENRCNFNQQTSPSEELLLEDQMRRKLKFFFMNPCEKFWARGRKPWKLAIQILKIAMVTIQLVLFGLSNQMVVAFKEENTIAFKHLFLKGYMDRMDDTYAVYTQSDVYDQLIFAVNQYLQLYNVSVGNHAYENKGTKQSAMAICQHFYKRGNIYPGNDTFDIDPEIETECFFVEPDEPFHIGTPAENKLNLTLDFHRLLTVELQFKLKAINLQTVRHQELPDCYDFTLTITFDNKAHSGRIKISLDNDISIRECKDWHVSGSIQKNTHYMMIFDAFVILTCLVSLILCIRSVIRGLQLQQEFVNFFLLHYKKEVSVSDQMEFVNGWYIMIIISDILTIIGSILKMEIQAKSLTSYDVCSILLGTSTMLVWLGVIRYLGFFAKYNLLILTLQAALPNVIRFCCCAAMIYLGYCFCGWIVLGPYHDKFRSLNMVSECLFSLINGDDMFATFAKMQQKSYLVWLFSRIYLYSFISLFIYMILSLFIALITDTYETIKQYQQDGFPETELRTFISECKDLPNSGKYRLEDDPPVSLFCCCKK
Description: Fluorescence counterscreen assay for […] agonists: dose response cell-based high-throughput screening assay to identify agonists of the transient receptor potential channel ML3 (TRPML3). [Related pubchem assays: 1424, 1448 ]. It counts as functional.

The target of test [3] is T3, Intestinal-type alkaline phosphatase (Homo sapiens, UniProt P09923). Briefly: Dose Response confirmation of uHTS hits from a small molecule inhibitors of human intestinal alkaline phosphatase via a luminescent assay. [Related pubchem assays (depositor defined):AID2544, AID2574]. It counts as functional.
T3 sequence (P09923 whole entry): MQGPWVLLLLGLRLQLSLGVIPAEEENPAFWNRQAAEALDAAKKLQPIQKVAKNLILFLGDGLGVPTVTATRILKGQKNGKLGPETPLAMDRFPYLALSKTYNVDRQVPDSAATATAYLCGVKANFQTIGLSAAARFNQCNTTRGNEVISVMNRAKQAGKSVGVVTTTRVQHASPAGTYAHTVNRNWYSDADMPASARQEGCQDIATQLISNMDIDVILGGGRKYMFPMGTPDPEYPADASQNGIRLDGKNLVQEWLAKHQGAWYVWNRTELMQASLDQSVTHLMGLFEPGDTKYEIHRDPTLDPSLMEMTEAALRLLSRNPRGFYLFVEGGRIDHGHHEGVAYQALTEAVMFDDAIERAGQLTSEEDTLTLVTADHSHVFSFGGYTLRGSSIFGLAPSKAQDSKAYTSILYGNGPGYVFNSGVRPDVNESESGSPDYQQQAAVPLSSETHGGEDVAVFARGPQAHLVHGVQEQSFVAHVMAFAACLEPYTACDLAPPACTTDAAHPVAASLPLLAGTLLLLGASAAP
Test [4] concerns the target T3, Intestinal-type alkaline phosphatase. Description: human intestinal alkaline phosphatase activators, dose response, biochemical, luminescence, uHTS hits (AID 463120). In kind it is functional.
In a further test the target is T4, Hexokinase HKDC1 (Homo sapiens, UniProt Q2TB90).
T4 sequence (Q2TB90 whole entry): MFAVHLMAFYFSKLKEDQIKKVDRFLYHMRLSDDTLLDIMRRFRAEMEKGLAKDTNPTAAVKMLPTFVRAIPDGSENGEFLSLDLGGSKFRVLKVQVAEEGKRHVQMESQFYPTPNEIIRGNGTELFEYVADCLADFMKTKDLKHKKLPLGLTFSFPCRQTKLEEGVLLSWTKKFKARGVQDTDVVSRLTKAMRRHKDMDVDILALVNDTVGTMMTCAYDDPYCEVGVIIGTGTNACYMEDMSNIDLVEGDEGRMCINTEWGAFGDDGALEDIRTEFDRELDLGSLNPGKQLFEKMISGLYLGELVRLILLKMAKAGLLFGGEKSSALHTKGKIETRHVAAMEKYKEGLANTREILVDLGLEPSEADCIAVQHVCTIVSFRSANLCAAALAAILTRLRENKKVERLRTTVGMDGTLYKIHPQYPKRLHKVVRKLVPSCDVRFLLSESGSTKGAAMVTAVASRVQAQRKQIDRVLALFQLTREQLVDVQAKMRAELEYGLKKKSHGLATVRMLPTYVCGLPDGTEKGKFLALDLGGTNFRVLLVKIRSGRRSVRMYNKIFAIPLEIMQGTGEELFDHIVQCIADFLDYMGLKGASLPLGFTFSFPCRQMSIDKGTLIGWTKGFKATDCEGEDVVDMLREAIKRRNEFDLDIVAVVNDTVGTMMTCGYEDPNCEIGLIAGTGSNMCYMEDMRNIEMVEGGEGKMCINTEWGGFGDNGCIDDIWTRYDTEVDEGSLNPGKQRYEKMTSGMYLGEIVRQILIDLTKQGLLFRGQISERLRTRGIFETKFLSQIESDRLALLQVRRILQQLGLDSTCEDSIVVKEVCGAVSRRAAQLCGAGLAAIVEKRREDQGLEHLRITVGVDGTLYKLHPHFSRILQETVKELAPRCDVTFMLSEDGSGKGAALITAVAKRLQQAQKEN
Briefly: activation of HKDC1 glucose phosphorylation – biochemical, W721R variant, dose response (AID 504730). In kind it is functional.

The target in the next test is T5, Hexokinase-1 (Homo sapiens, UniProt P19367).
T5 sequence (P19367 whole entry): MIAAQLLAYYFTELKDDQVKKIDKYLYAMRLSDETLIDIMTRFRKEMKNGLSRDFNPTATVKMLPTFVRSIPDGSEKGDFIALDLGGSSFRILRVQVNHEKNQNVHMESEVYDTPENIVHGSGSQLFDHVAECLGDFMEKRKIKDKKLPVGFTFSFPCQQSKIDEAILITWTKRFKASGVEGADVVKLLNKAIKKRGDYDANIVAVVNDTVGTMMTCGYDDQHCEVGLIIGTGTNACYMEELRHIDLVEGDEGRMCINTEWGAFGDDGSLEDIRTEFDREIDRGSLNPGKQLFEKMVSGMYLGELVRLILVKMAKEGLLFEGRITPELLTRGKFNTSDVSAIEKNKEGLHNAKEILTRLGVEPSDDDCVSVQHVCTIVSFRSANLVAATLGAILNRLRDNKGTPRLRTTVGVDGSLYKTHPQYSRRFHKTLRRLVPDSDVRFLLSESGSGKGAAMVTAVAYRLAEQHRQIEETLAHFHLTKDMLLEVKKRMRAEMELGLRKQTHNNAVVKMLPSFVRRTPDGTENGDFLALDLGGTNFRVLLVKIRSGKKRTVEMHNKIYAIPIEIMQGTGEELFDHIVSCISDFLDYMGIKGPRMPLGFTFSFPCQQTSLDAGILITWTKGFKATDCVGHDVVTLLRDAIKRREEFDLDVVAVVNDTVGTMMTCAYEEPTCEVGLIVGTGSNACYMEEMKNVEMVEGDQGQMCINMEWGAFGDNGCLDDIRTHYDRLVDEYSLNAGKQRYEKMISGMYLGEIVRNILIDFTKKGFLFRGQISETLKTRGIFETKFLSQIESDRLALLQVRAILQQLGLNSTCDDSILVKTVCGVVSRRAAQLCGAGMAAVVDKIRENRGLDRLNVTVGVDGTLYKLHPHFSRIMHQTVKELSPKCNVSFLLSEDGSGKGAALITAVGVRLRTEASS
Description: HK1 enzyme activation by HKDC1 hits – biochemical, selectivity assay for HKDC1 activator project, dose response (AID 504762). In kind it is functional.

Test [5] can be described thus: Trypanosoma cruzi growth suppression in host cells – NIH3T3 host cells, beta-gal luminescence, confirmation (AID 2044).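 Also: intracellular parasites grown in NIH/3T3 mouse fibroblasts as host cells; luminescent beta-galactosidase reporter signal from transgenic T. cruzi replicating inside host cells; inhibitors lower the luminescence signal.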 It counts as functional, cell-based.
Test [6] is described as follows: NIH3T3 cell viability loss – ATP luminescence, mouse fibroblasts, counter-screen, dose response (AID 2010).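 Also: cells exposed to compound for about 90 hours before reading.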 In kind it is functional, cell-based. (In general: The purpose of a counterscreen is to sort out artefacts and off-target activity.)
For test [7], the target named is Induced myeloid leukemia cell differentiation protein Mcl-1 (Homo sapiens, UniProt Q07820). It counts as functional.
Induced myeloid leukemia cell differentiation protein Mcl-1, sequence (Q07820 whole entry): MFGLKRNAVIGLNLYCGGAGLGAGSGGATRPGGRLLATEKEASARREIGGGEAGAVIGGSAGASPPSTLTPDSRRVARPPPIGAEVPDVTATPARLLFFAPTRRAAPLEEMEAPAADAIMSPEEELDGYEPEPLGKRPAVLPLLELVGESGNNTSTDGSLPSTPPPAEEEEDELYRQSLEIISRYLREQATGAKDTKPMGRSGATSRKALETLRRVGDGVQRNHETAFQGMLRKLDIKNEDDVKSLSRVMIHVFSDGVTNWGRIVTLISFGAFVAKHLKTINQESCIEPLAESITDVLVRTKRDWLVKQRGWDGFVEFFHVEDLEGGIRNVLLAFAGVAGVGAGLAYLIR
Test [8] is described as follows: Luminescence Cell-Based Dose Retest to Confirm Inhibitors of Cancer Stem Cells. [Related pubchem assays (depositor defined):AID2717, AID2721]. In kind it is functional. The settings on record: Homo sapiens.
Test [9] deals with DNA damage-inducible transcript 3 protein (Mus musculus, UniProt P35639). In kind it is functional, Cricetulus griseus.
DNA damage-inducible transcript 3 protein, sequence (P35639 whole entry): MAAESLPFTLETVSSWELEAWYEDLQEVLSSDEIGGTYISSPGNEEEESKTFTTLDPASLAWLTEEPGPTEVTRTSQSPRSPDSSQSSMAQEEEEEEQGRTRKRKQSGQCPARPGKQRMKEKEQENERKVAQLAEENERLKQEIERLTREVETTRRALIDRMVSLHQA
The target in another test is T6, Cysteine protease ATG4B (Homo sapiens, UniProt Q9Y4P1).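 Also: Fluorescence-based dose-response confirmation assay measuring inhibition of ATG4B activity.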
T6 sequence (Q9Y4P1 whole entry): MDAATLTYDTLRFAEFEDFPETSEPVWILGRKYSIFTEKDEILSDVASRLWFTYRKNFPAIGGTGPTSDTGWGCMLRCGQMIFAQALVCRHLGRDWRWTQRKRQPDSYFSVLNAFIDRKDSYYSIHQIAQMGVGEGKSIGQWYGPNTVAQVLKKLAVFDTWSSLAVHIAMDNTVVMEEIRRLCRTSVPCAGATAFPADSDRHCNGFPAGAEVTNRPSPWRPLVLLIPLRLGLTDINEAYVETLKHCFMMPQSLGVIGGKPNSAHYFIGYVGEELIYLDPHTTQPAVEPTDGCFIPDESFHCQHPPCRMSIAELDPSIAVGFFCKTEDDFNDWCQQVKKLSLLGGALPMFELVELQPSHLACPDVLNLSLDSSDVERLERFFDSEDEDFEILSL
It counts as functional.

The target in a further test is Phospholipase A2 (Homo sapiens, UniProt P04054). It counts as functional.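 Also: confirmatory dose-response counterscreen on phospholipase A2, testing hits that came from an ultra-high-throughput screen for ATG4B inhibitors.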
Phospholipase A2, sequence (P04054 whole entry): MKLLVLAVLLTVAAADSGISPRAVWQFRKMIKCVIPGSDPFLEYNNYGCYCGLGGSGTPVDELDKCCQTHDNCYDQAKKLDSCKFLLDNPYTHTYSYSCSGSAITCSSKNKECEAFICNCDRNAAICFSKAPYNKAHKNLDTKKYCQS
In a further test the test system is INS1. Briefly: INS-1E survival protection against cytokine death – cell-based, luminescence, retest, dose response (AID 449756).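 Also: cell death triggered by IL-1 beta plus TNF-alpha plus IFN-gamma mixture; protective hits raise ATP signal compared with cytokine alone wells.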 It counts as functional. The settings on record: Rattus norvegicus.

Active and inactive are the calls of the source.

Ion channel NompC, sequence (Q7T1G6 whole entry): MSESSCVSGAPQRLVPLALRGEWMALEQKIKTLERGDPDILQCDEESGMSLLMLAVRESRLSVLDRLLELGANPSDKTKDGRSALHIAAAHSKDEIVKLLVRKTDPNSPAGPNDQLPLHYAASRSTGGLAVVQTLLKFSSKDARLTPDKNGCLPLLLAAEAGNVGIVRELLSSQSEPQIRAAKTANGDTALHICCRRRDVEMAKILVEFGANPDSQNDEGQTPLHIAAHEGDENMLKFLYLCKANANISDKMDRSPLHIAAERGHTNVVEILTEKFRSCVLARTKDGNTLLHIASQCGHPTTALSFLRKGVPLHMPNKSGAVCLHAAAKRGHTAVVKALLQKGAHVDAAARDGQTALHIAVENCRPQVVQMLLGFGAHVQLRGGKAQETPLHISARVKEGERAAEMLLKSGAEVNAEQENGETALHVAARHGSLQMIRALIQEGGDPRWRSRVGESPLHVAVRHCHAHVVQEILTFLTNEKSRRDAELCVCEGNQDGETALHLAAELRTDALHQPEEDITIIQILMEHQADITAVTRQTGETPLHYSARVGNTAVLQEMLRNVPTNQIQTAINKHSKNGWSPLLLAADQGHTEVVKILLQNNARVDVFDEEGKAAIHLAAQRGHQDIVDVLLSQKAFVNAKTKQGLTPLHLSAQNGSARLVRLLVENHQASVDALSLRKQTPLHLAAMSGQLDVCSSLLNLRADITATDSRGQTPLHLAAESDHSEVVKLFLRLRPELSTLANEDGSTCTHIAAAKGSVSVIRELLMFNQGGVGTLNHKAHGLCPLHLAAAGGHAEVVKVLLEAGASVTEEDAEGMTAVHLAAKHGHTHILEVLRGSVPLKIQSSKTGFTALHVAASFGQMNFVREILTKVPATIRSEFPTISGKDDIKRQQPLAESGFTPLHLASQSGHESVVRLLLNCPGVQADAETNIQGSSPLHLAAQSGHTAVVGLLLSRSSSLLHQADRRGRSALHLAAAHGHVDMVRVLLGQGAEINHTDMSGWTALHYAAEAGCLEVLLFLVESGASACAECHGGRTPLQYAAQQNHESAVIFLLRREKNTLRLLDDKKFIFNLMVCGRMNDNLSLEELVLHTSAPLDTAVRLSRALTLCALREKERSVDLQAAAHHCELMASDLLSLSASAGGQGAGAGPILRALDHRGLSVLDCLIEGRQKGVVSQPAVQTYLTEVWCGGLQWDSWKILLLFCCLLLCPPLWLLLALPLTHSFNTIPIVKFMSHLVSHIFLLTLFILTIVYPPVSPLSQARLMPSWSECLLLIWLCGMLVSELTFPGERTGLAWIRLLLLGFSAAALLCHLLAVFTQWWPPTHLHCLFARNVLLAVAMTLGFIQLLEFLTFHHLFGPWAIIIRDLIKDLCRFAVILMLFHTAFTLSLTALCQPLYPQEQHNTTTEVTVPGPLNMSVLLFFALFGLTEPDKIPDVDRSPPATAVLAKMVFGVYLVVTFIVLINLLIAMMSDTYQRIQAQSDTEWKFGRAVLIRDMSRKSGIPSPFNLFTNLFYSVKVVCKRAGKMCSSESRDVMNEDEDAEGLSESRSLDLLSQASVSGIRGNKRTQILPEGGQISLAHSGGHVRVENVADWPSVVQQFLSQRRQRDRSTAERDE
Glyceraldehyde-3-phosphate dehydrogenase, sequence (P04406 whole entry): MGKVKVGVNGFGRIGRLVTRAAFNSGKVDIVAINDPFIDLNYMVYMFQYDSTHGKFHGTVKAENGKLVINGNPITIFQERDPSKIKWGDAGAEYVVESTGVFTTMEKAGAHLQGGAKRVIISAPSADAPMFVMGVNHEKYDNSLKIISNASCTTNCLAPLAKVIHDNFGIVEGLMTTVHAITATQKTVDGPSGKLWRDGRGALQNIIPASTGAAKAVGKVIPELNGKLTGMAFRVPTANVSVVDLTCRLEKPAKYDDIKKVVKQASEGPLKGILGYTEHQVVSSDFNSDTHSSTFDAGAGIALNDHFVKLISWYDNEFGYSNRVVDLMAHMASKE

As a reminder, the IC50 is the concentration that inhibits the measured activity by half. For `O=S(=O)(Nc1cnc2ccccc2c1)c1ccc(F)cc1`, the concentration for half-maximal inhibition (IC50) is > 100 µM (not active) in [1] and > 100 µM (inactive) in [2].
What is called EC50 is the concentration at which the effect is half-maximal. Take `CCOC(=O)C1CN(S(=O)(=O)c2ccc(C)cc2)CCN1S(=O)(=O)c1ccc(C)cc1` (stereo unspecified): the EC50 is > 29.9 µM (inactive) on Ion channel NompC and > 29.9 µM (not active) at Mucolipin-3.
With `CN(Cc1ccccc1)C(=O)Nc1ccc(Cl)cc1`, in test [3], the IC50 is > 100 µM (inactive). Besides, the EC50 in [4] was > 100 µM (inactive).
For the molecule `CC1(C)C(=O)Nc2ccccc2N1C(=O)COC(=O)c1cc(Cl)cc(Cl)c1`, the EC50 on Hexokinase HKDC1 was 49.1 µM (inactive); on Hexokinase-1, 65.2 µM (inactive).
A word on the AC50: it is the concentration giving half of the maximal activity seen. For `Cc1ccccc1/C=N/Nc1ccnc2cc(Cl)ccc12`, the EC50 in [5] is 1.07 µM (active); in test [6], > 60 µM (not active). The IC50 is 5.13 µM (active) in [7], 14.7 µM (active) at Cysteine protease ATG4B and 11.4 µM (active) on Phospholipase A2. The AC50 is 3.62 µM (active) in test [8] and 5.39 µM (active) in the test on INS1. Further, the “Absolute IC50 (CHOP)” value in test [9] was determined as 10 µM.
